Here are results for one compound from US20220064696A1, “TARGET ENGAGEMENT ASSAY FOR RAS PROTEINS” (Promega Corporation, priority 2020, published 2022).

Common to all, as to type: binding
Experiment [1] addresses T1, KRAS (Homo sapiens, UniProt P01116).
T1 construct: expressed in transfected cells; host or cells: HEK293
Briefly: NanoBiT BRET target engagement assay in cells, LgBiT and SmBiT fusions, tracer JRW-2111. Conditions: HEK293 cells, wild-type KRAS LgBiT/SmBiT fusions, tracer JRW-2111, FIGS. 2-3. The protocol: (§1) Luminescence was produced from either NanoLuc (Nluc) tagging of KRAS as the BRET donor, or by NanoBiT tagging of KRAS, wherein BRET donor signal originates from KRAS multimeric species in cells. In 96-well plates, 20,000 HEK293 cells per well were transfected with KRAS-Nluc fusions or KRAS-NanoBiT fusions expressed from pFN31K and pFN32K plasmids. Transfections were performed using 3:1 FuGENE HD:plasmid ratios. […] After incubation, NanoBRET-TE substrate solution was added to a final concentration of 1×, and BRET was measured on a Glomax Discover plate reader.

Experiment [2] addresses T2, KRAS^G12C (Homo sapiens, UniProt P01116, G12C).
T2 construct: expressed in transfected cells; host or cells: HEK293
The experiment is described as above. Conditions: HEK293 cells, tracer JRW-2111, FIGS. 2-3. On the procedure: as §1

For experiment [3], the target named is T3, KRAS^G12D (Homo sapiens, UniProt P01116, G12D).
T3 construct: expressed in transfected cells; host or cells: HEK293
Described as above. Conditions: HEK293 cells, tracer JRW-2111, FIGS. 2-3. The protocol: as §1

Experiment [4] has as its target T4, KRAS^G12V (Homo sapiens, UniProt P01116, G12V).
T4 construct: expressed in transfected cells; host or cells: HEK293
Described as above. Particulars: HEK293 cells, tracer JRW-2111, FIGS. 2-3. On the procedure: as §1

For experiment [5], the target named is T1, KRAS. Description: NanoLuc fusion BRET target engagement assay in cells, tracer JRW-2025. Particulars: HEK293 cells, wild-type KRAS-NanoLuc fusion, tracer JRW-2025, FIG. 4. On the procedure: as §1
In general terms: BRET reads energy transfer from a luciferase to a nearby fluorophore.

Experiment [6] deals with T2, KRAS^G12C. Described as above. Conditions: HEK293 cells, tracer JRW-2025, FIG. 4. On the procedure: as §1
In experiment [7] the target is T3, KRAS^G12D. The description is as above. Conditions: HEK293 cells, tracer JRW-2025, FIG. 4. The protocol: as §1
In experiment [8] the target is T4, KRAS^G12V. The experiment is described as above. Conditions: HEK293 cells, tracer JRW-2025, FIG. 4. On the procedure:
as §1

The target of experiment [9] is T5, KRAS2B(G12C) (Homo sapiens, UniProt P01116, G12C).
T5 construct: expressed in transfected cells; host or cells: HEK293
Briefly: Target engagement at KRAS(G12C) homomultimeric complexes, NanoBiT oligomer configuration with SmBiT tag. Particulars: LgBiT-KRAS2B(G12C) and SmBiT-KRAS2B(G12C). The protocol: To explore this concept, the NanoBiT™ Technology was used to observe KRAS multimeric (e.g., dimer) complexes by NanoBiT tagging of KRAS, wherein BRET donor signal originates from an oligomeric KRAS. In a tissue culture flask, HEK293 cells per well were transfected with KRAS-NanoBiT fusions, LgBiT-KRAS2B(G12C) and SmBiT-KRAS2B(G12C) expressed from pNB3K or pNB4K plasmids along with pGEM-3Z carrier DNA (1:1:8 ratio by mass). Transfections were performed using 3:1 FuGENE HD:plasmid ratios. 24 hours post transfection, cells were treated with compound JRW-2220 and BI-2852.
After incubation in live cells, NanoBRET-TE substrate solution was added to a final concentration of 1×, and BRET was measured on a Glomax Discover plate reader.
The assay was also performed in digitonin permeabilized cells.

Another experiment has as its target T6, HRAS1 (Homo sapiens, UniProt P01112).
T6 construct: expressed in transfected cells; host or cells: HEK293
Description: RAS NanoBiT target engagement assay in cells (LgBiT-RAS and SmBiT-RAS). Particulars: HEK293 cells, LgBiT-HRAS1 and SmBiT-HRAS1, tracer JRW-2219 or JRW-2220, FIGS. 18-19. On the procedure: (§2) To explore this concept, the NanoBiT™ Technology was used to form RAS multimeric (e.g., dimer) complexes by NanoBiT tagging of RAS, wherein BRET donor signal originates from an oligomeric RAS. In a tissue culture flask, HEK293 cells per well were transfected with RAS-NanoBiT fusions, LgBiT-RAS and SmBiT-RAS expressed from pNB3K or pNB4K plasmids along with pGEM-3Z carrier DNA (1:1:8 ratio by mass). Transfections were performed using 3:1 FuGENE HD:plasmid ratios. 24 hours post transfection, cells were treated with compound JRW-2219, JRW-2220, or JRW-2310, and BI-2852.

The target in another experiment is T7, KRAS2B (Homo sapiens, UniProt P01116).
T7 construct: expressed in transfected cells; host or cells: HEK293
The description is as above. Particulars: HEK293 cells, tracer JRW-2219, FIGS. 10-11. The protocol: as §2

The target of experiment [10] is T5, KRAS2B(G12C). The experiment is described as above. Conditions: HEK293 cells, tracer JRW-2219 or JRW-2220, FIGS. 12-13. The protocol: as §2
The next experiment concerns the target T8, KRAS2B(G12D) (Homo sapiens, UniProt P01116, G12D).
T8 construct: expressed in transfected cells; host or cells: HEK293
The description is as above. Particulars: HEK293 cells, tracer JRW-2219 or JRW-2220, FIGS. 14-15. The protocol:
as §2

A further experiment addresses T9, KRAS2B(G12V) (Homo sapiens, UniProt P01116, G12V).
T9 construct: expressed in transfected cells; host or cells: HEK293
The description is as above. Particulars: HEK293 cells, tracer JRW-2219 or JRW-2220, FIGS. 16-17. The protocol: as §2

The next experiment deals with T10, KRAS2B(G13D) (Homo sapiens, UniProt P01116, G13D).
T10 construct: expressed in transfected cells; host or cells: HEK293
The experiment is described as above. Particulars: HEK293 cells, tracer JRW-2310, FIG. 24. On the procedure:
as §2

For another experiment, the target named is T11, KRAS2B(Q61H) (Homo sapiens, UniProt P01116, Q61H).
T11 construct: expressed in transfected cells; host or cells: HEK293
Described as above. Conditions: HEK293 cells, tracer JRW-2310, FIG. 22. The protocol: as §2

For a further experiment, the target named is T12, KRAS2B(Q61L) (Homo sapiens, UniProt P01116, Q61L).
T12 construct: expressed in transfected cells; host or cells: HEK293
The experiment is described as above. Particulars: HEK293 cells, tracer JRW-2310, FIG. 23. On the procedure: as §2

A further experiment deals with T13, KRAS2B(Q61R) (Homo sapiens, UniProt P01116, Q61R).
T13 construct: expressed in transfected cells; host or cells: HEK293
The experiment is described as above. Conditions: HEK293 cells, tracer JRW-2310, FIG. 21. The protocol:
as §2

Each structure is given as a SMILES string.

For the compound `Cn1cnc(Cn2ccc3ccc(CNCc4[nH]c5ccccc5c4[C@H]4NC(=O)c5ccc(O)cc54)cc32)c1` [BI-2852], the “target engagement (competition with the KRAS binding agent, BRET)” value on KRAS [1], on KRAS^G12C [2], on KRAS^G12D [3] and at KRAS^G12V [4] was “target engagement was observed” throughout. Also, the “competition with the KRAS binding agent (BRET)” value at KRAS [5], at KRAS^G12C [6], on KRAS^G12D [7] and at KRAS^G12V [8] was “competition was observed” throughout. Further, the “inhibition of the BRET signal induced by the tracer (functional competition)” value on KRAS2B(G12C) [9] (digitonin permeabilized HEK293 cells, tracer JRW-2220, FIG. 7) was “dose-dependent inhibition of the BRET signal”; at KRAS2B(G12C) [9] (live HEK293 cells, tracer JRW-2220, FIG. 6), “dose-dependent inhibition of the BRET signal”. Moreover, the “target engagement (BRET, competition with the RAS binding agent)” value at HRAS1, on KRAS2B, on KRAS2B(G12C) [10], at KRAS2B(G12D), at KRAS2B(G12V) and on KRAS2B(G13D) was “target engagement was observed” each time. For the same compound, the “target engagement (BRET, competition with the RAS binding agent)” value at KRAS2B(Q61H), at KRAS2B(Q61L) and on KRAS2B(Q61R) was “target engagement was observed” each time.
